The target in experiment [1] is T1, Endothelin-1 receptor (Homo sapiens, UniProt P25101).
T1 sequence (P25101 whole entry): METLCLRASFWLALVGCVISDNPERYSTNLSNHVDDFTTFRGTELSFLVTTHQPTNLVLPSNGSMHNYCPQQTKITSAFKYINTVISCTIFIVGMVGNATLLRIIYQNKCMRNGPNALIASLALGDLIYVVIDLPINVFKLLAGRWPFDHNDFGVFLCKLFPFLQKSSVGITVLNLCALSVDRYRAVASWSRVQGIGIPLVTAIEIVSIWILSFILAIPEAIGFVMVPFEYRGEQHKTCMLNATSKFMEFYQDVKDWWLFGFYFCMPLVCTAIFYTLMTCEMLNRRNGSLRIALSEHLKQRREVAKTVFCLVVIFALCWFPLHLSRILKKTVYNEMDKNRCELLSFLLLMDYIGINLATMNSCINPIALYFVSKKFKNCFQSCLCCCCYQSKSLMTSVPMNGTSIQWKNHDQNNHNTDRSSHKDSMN
Description: Inhibitory of human Endothelin A receptor by using I-ET-1 as radioligand in a competitive radioligand assay.

Experiment [2] concerns the target T2, Endothelin receptor type B (Homo sapiens, UniProt P24530).
T2 sequence (P24530 whole entry): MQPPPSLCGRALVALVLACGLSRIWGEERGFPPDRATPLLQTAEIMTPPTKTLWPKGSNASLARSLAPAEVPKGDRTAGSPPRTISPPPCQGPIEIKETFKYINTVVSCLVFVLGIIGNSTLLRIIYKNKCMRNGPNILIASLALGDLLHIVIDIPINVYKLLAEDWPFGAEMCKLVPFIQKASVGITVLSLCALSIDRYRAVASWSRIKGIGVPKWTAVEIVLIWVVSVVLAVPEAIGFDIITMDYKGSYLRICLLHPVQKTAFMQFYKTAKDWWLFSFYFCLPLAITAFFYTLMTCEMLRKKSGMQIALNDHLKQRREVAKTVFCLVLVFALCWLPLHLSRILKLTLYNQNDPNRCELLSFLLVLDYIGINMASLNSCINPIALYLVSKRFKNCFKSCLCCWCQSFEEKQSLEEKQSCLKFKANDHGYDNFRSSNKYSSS
Description: Inhibition of human Endothelin B receptor using I-ET-1 as radioligand in a competitive radioligand assay.

In experiment [3] the target is T1, Endothelin-1 receptor. The experiment is described as follows: Tested for the inhibitory activity of cloned human ETA receptor by using I-ET-1 as radioligand in a competitive radioligand assay.
Experiment [4] concerns the target T2, Endothelin receptor type B. The experiment is described as follows: Tested for the inhibitory activity of cloned human ETB receptor by using I-ET-1 as radioligand in a competitive radioligand assay.

In the case of `Cc1cc2c(cc1/C=C/c1sccc1S(=O)(=O)Nc1onc(C)c1Br)OCO2`, the figures for the IC50 (at Endothelin-1 receptor [1]; in experiment [2]) were 81 nM and 3280 nM, respectively. Taken in the same sequence, the figures for `Cc1cc2c(cc1CCc1sccc1S(=O)(=O)Nc1onc(C)c1Br)OCO2` were 62 nM and 8900 nM.

Regarding `Cc1cc(C)c(CCc2ccsc2S(=O)(=O)Nc2onc(C)c2Br)c(C)c1`, the IC50 is 58 nM on Endothelin-1 receptor [1] and 1390 nM in experiment [2]. For the compound `Cc1ccc(/C=C/c2ccsc2S(=O)(=O)Nc2onc(C)c2Br)c(C)c1`, the IC50 was found to be 180 nM on Endothelin-1 receptor [1] and 2970 nM in experiment [2]. Turning to `Cc1noc(NS(=O)(=O)c2sccc2CCc2ccc3c(c2)OCO3)c1Br`, the IC50 at Endothelin-1 receptor [1] was 237 nM; in experiment [2], 17900 nM. For the compound `Cc1ccc(/C=C/c2sccc2S(=O)(=O)Nc2onc(C)c2Br)c(C)c1`, the IC50 at Endothelin-1 receptor [1] came out at 166 nM; in experiment [2], 2970 nM. For `Cc1noc(NS(=O)(=O)c2sccc2/C=C/c2ccc3c(c2)OCO3)c1Br`, in that order: 218 nM and 9950 nM.

In turn, `Cc1ccc(CCc2ccsc2S(=O)(=O)Nc2onc(C)c2Br)c(C)c1` showed an IC50 on Endothelin-1 receptor [1] of 102 nM.

On to `Cc1cc2c(cc1CCc1ccsc1S(=O)(=O)Nc1onc(C)c1Br)OCO2`, for which the figures for the IC50 (at Endothelin-1 receptor [1]; in experiment [2]) were 91 nM and 12400 nM, respectively.

`Cc1ccc(/C=C/c2ccsc2S(=O)(=O)Nc2onc(C)c2Br)cc1`: the IC50 in experiment [2] was 6630 nM. For the compound `Cc1noc(NS(=O)(=O)c2sccc2/C=C/c2cc3c(cc2CO)OCO3)c1Br`, the IC50 at Endothelin-1 receptor [1] was found to be 79 nM; in experiment [2] it was 3240 nM. `Cc1cc(C)c(CCc2sccc2S(=O)(=O)Nc2onc(C)c2Br)c(C)c1`: the values for the IC50 (on Endothelin-1 receptor [1]; in experiment [2]) were 46 nM and 2090 nM, respectively.

`Cc1ccc(CCc2sccc2S(=O)(=O)Nc2onc(C)c2Br)cc1` displayed an IC50 in experiment [2] of 11700 nM. Turning to `Cc1noc(NS(=O)(=O)c2sccc2/C=C/c2cc3c(cc2COC2CCOCC2)OCO3)c1Br`, the IC50 stood at 73 nM at Endothelin-1 receptor [1] and 4130 nM in experiment [2]. In the case of `Cc1cc2c(cc1/C=C/c1ccsc1S(=O)(=O)Nc1onc(C)c1Br)OCO2`, the values for the concentration for half-maximal inhibition (IC50) (at Endothelin-1 receptor [3]; in experiment [4]) were 72 nM and 5370 nM, respectively. With `Cc1noc(NS(=O)(=O)c2ccsc2CCc2ccc3c(c2)OCO3)c1Br`, the IC50 on Endothelin-1 receptor [1] was 205 nM; in experiment [2] it was 9240 nM. For `Cc1cc(C)c(/C=C/c2sccc2S(=O)(=O)Nc2onc(C)c2Br)c(C)c1`, in that order: 44 nM and 2000 nM.

Turning to `Cc1ccc(/C=C/c2sccc2S(=O)(=O)Nc2onc(C)c2Br)cc1`, the values for the IC50 (at Endothelin-1 receptor [1]; in experiment [2]) were 231 nM and 4130 nM, respectively. For `Cc1noc(NS(=O)(=O)c2ccsc2/C=C/c2ccc3c(c2)OCO3)c1Br`, the IC50 on Endothelin-1 receptor [1] was determined as 141 nM; in experiment [2], 5250 nM.

Consider `Cc1cc(C)c(/C=C/c2ccsc2S(=O)(=O)Nc2onc(C)c2Br)c(C)c1`, for which the results for the IC50 (on Endothelin-1 receptor [1]; in experiment [2]) were 53 nM and 1720 nM, respectively.

Take `Cc1cc(C)c(NC(=O)c2sccc2S(=O)(=O)Nc2onc(C)c2Cl)c(C)c1`: at Endothelin-1 receptor [1], the IC50 stood at 630 nM.

For orientation: IC50 means the concentration that gives 50% inhibition.

These data come from ChEMBL document CHEMBL1129901, “Amide bond surrogates: A study in thiophenesulfonamide based endothelin receptor antagonists” (Bioorg Med Chem Lett, 1997).
